Data taken from US11382328B2, “Rapid drug discovery methods for pathogen inactivation” (priority 2019, dated 2022).

Tested on: E. coli strain W3110
Experiment: Synergy assays: Biolog chemical sensitivity panels with Group IB metal, coefficient of drug interaction (CDI) from relative growth
Format: cell-based
Conditions: for CDI (coefficient of drug interaction), copper mixed with biocide: Copper (mM) section; for CDI (coefficient of drug interaction), gold + biocide: Gold (μM)
[1] = 1st of 3 copper concentrations (value not shown), 3rd of four biocide concentrations
[2] = 1st of 3 copper concentrations (value not shown), 4th of four biocide concentrations
[3] = 2nd of 3 copper concentrations (value not shown), 3rd of four biocide concentrations
[4] = 2nd of 3 copper concentrations (value not shown), 4th of four biocide concentrations
[5] = 3rd of 3 copper concentrations (value not shown), 3rd of four biocide concentrations
[6] = 3rd of 3 copper concentrations (value not shown), 4th of four biocide concentrations
[7] = Gold section of Table 5, first of three gold concentrations (μM, value not given), biocide concentration 3 of 4
[8] = Gold section of Table 5, first of three gold concentrations (μM, value not given), biocide concentration 4 of 4
[9] = Gold section of Table 5, second of three gold concentrations (μM, value not given), biocide concentration 3 of 4
[10] = Gold section of Table 5, second of three gold concentrations (μM, value not given), biocide concentration 4 of 4
[11] = Gold section of Table 5, third of three gold concentrations (μM, value not given), biocide concentration 3 of 4
[12] = Gold section of Table 5, third of three gold concentrations (μM, value not given), biocide concentration 4 of 4
[13] = Silver 0.5 μM, biocide concentration 1 of 4
[14] = Silver 0.5 μM, biocide concentration 2 of 4
[15] = Silver 0.5 μM, biocide concentration 3 of 4
[16] = Silver 0.5 μM, biocide concentration 4 of 4
[17] = Silver 1.0 μM, biocide concentration 1 of 4
[18] = Silver 1.0 μM, biocide concentration 2 of 4
[19] = Silver 1.0 μM, biocide concentration 3 of 4
[20] = Silver 1.0 μM, biocide concentration 4 of 4
[21] = Silver 5.0 μM, biocide concentration 1 of 4
[22] = Silver 5.0 μM, biocide concentration 2 of 4
[23] = Silver 5.0 μM, biocide concentration 4 of 4
[24] = Silver 0.5 μM, 4th of four biocide concentrations, E. coli
[25] = Silver 1.0 μM, 4th of four biocide concentrations, E. coli
[26] = Silver 5.0 μM, 4th of four biocide concentrations, E. coli
[27] = Silver 0.5 μM, 3rd of four biocide concentrations, E. coli
[28] = Silver 1.0 μM, 3rd of four biocide concentrations, E. coli
[29] = Silver 5.0 μM, 3rd of four biocide concentrations, E. coli

C[n+]1ccc(-c2cc[n+](C)cc2)cc1 [methyl viologen]
CDI (coefficient of drug interaction), copper mixed with biocide (1st of 3 copper concentrations (value not shown), 1st of four biocide concentrations): 0.85 | CDI (coefficient of drug interaction), copper mixed with biocide (1st of 3 copper concentrations (value not shown), 2nd of four biocide concentrations): 0.99 | CDI (coefficient of drug interaction), copper mixed with biocide [1]: Tox | CDI (coefficient of drug interaction), copper mixed with biocide [2]: Tox | CDI (coefficient of drug interaction), copper mixed with biocide (2nd of 3 copper concentrations (value not shown), 1st of four biocide concentrations): 0.63 | CDI (coefficient of drug interaction), copper mixed with biocide (2nd of 3 copper concentrations (value not shown), 2nd of four biocide concentrations): 0.77 | CDI (coefficient of drug interaction), copper mixed with biocide [3]: Tox | CDI (coefficient of drug interaction), copper mixed with biocide [4]: Tox | CDI (coefficient of drug interaction), copper mixed with biocide (3rd of 3 copper concentrations (value not shown), 1st of four biocide concentrations): 0.61 | CDI (coefficient of drug interaction), copper mixed with biocide (3rd of 3 copper concentrations (value not shown), 2nd of four biocide concentrations): 0.64 | CDI (coefficient of drug interaction), copper mixed with biocide [5]: Tox | CDI (coefficient of drug interaction), copper mixed with biocide [6]: Tox | CDI (coefficient of drug interaction) (Gold section of Table 5, first of three gold concentrations (μM, value not given), biocide concentration 1 of 4): 0.99 | CDI (coefficient of drug interaction) (Gold section of Table 5, first of three gold concentrations (μM, value not given), biocide concentration 2 of 4): 1.07 | CDI (coefficient of drug interaction) [7]: 0.82 | CDI (coefficient of drug interaction) [8]: 0.08 | CDI (coefficient of drug interaction) (Gold section of Table 5, second of three gold concentrations (μM, value not given), biocide concentration 1 of 4): 1.01 | CDI (coefficient of drug interaction) (Gold section of Table 5, second of three gold concentrations (μM, value not given), biocide concentration 2 of 4): 1.01 | CDI (coefficient of drug interaction) [9]: 0.66 | CDI (coefficient of drug interaction) [10]: 0.78 | CDI (coefficient of drug interaction) (Gold section of Table 5, third of three gold concentrations (μM, value not given), biocide concentration 1 of 4): 1.04 | CDI (coefficient of drug interaction) (Gold section of Table 5, third of three gold concentrations (μM, value not given), biocide concentration 2 of 4): 0.98 | CDI (coefficient of drug interaction) [11]: 0.50 | CDI (coefficient of drug interaction) [12]: 0.28 | CDI [13]: 0.89 | CDI [14]: 0.73 | CDI [15]: Tox | CDI [16]: Tox | CDI [17]: 0.48 | CDI [18]: 0.20 | CDI [19]: Tox | CDI [20]: Tox | CDI [21]: 0.07 | CDI [22]: 0.01 | CDI (Silver 5.0 μM, biocide concentration 3 of 4): Tox | CDI [23]: Tox

Nc1c2ccccc2nc2ccccc12 [9-aminoacridine]
CDI (coefficient of drug interaction), copper mixed with biocide [4]: Tox | CDI (coefficient of drug interaction), silver + biocide [24]: Tox | CDI (coefficient of drug interaction), silver + biocide [25]: Tox | CDI (coefficient of drug interaction), silver + biocide [26]: Tox

O=[N+]([O-])c1ncc[nH]1 [2-nitroimidazole]
CDI (coefficient of drug interaction), copper mixed with biocide [1]: Tox | CDI (coefficient of drug interaction), copper mixed with biocide [2]: Tox | CDI (coefficient of drug interaction), copper mixed with biocide [3]: Tox | CDI (coefficient of drug interaction), copper mixed with biocide [4]: Tox | CDI (coefficient of drug interaction), copper mixed with biocide [5]: Tox | CDI (coefficient of drug interaction), copper mixed with biocide [6]: Tox | CDI (coefficient of drug interaction) [7]: Tox | CDI (coefficient of drug interaction) [8]: Tox | CDI (coefficient of drug interaction) [9]: Tox | CDI (coefficient of drug interaction) [10]: Tox | CDI (coefficient of drug interaction) [11]: Tox | CDI (coefficient of drug interaction) [12]: Tox | CDI (coefficient of drug interaction), silver + biocide [27]: Tox | CDI (coefficient of drug interaction), silver + biocide [24]: Tox | CDI (coefficient of drug interaction), silver + biocide [28]: Tox | CDI (coefficient of drug interaction), silver + biocide [25]: Tox | CDI (coefficient of drug interaction), silver + biocide [29]: Tox | CDI (coefficient of drug interaction), silver + biocide [26]: Tox

C[n+]1cc2c3c(ccc2c2ccc4cc5c(cc4c21)OCO5)OCO3 [sanguinarine]
CDI (coefficient of drug interaction), copper mixed with biocide [2]: Tox | CDI (coefficient of drug interaction), copper mixed with biocide [3]: Tox | CDI (coefficient of drug interaction), copper mixed with biocide [4]: Tox | CDI (coefficient of drug interaction), copper mixed with biocide [6]: Tox | CDI (coefficient of drug interaction) [7]: Tox | CDI (coefficient of drug interaction) [8]: Tox | CDI (coefficient of drug interaction) [9]: Tox | CDI (coefficient of drug interaction) [10]: Tox | CDI (coefficient of drug interaction) [11]: Tox | CDI (coefficient of drug interaction) [12]: Tox | CDI (coefficient of drug interaction), silver + biocide [27]: Tox | CDI (coefficient of drug interaction), silver + biocide [24]: Tox | CDI (coefficient of drug interaction), silver + biocide [28]: Tox | CDI (coefficient of drug interaction), silver + biocide [25]: Tox | CDI (coefficient of drug interaction), silver + biocide [29]: Tox | CDI (coefficient of drug interaction), silver + biocide [26]: Tox

NCC[C@H](O)C(=O)N[C@@H]1C[C@H](N)[C@@H](O[C@H]2O[C@H](CN)[C@@H](O)[C@H](O)[C@H]2O)[C@H](O)[C@H]1O[C@H]1O[C@H](CO)[C@@H](O)[C@H](N)[C@H]1O [amikacin]
cell toxicity / growth curves with and without silver: enhanced cell toxicity

O=C(O)/C=C/c1ccccc1 [Cimamic acid]
CDI (coefficient of drug interaction) (Copper (mM), 1st of 3 copper concentrations (head line not shown), biocide concentration 1 of 4, E. coli): 0.85 | CDI (coefficient of drug interaction) (Copper (mM), 1st of 3 copper concentrations (head line not shown), biocide concentration 2 of 4, E. coli): 0.74 | CDI (coefficient of drug interaction) (Copper (mM), 1st of 3 copper concentrations (head line not shown), biocide concentration 3 of 4, E. coli): 0.87 | CDI (coefficient of drug interaction) (Copper (mM), 1st of 3 copper concentrations (head line not shown), biocide concentration 4 of 4, E. coli): Tox | CDI (coefficient of drug interaction) (Copper (mM), 2nd of 3 copper concentrations (head line not shown), biocide concentration 1 of 4, E. coli): 0.70 | CDI (coefficient of drug interaction) (Copper (mM), 2nd of 3 copper concentrations (head line not shown), biocide concentration 2 of 4, E. coli): 0.79 | CDI (coefficient of drug interaction) (Copper (mM), 2nd of 3 copper concentrations (head line not shown), biocide concentration 3 of 4, E. coli): 1.11 | CDI (coefficient of drug interaction) (Copper (mM), 2nd of 3 copper concentrations (head line not shown), biocide concentration 4 of 4, E. coli): Tox | CDI (coefficient of drug interaction) (Copper (mM), 3rd of 3 copper concentrations (head line not shown), biocide concentration 1 of 4, E. coli): 0.53 | CDI (coefficient of drug interaction) (Copper (mM), 3rd of 3 copper concentrations (head line not shown), biocide concentration 2 of 4, E. coli): 0.54 | CDI (coefficient of drug interaction) (Copper (mM), 3rd of 3 copper concentrations (head line not shown), biocide concentration 3 of 4, E. coli): 1.11 | CDI (coefficient of drug interaction) (Copper (mM), 3rd of 3 copper concentrations (head line not shown), biocide concentration 4 of 4, E. coli): Tox | CDI (coefficient of drug interaction), gold + biocide (first of 3 gold concentrations, biocide concentration 2 of 4): 1.09 | CDI (coefficient of drug interaction), gold + biocide (first of 3 gold concentrations, biocide concentration 3 of 4): 1.19 | CDI (coefficient of drug interaction), gold + biocide (first of 3 gold concentrations, biocide concentration 4 of 4): Tox | CDI (coefficient of drug interaction), gold + biocide (second of 3 gold concentrations, biocide concentration 1 of 4): 0.99 | CDI (coefficient of drug interaction), gold + biocide (second of 3 gold concentrations, biocide concentration 2 of 4): 1.11 | CDI (coefficient of drug interaction), gold + biocide (second of 3 gold concentrations, biocide concentration 3 of 4): 0.95 | CDI (coefficient of drug interaction), gold + biocide (second of 3 gold concentrations, biocide concentration 4 of 4): Tox | CDI (coefficient of drug interaction), gold + biocide (third of 3 gold concentrations, biocide concentration 1 of 4): 0.98 | CDI (coefficient of drug interaction), gold + biocide (third of 3 gold concentrations, biocide concentration 2 of 4): 0.85 | CDI (coefficient of drug interaction), gold + biocide (third of 3 gold concentrations, biocide concentration 3 of 4): 0.96 | CDI (coefficient of drug interaction), gold + biocide (third of 3 gold concentrations, biocide concentration 4 of 4): Tox | CDI [13]: 0.90 | CDI [14]: 1.06 | CDI [15]: 0.73 | CDI [16]: Tox | CDI [17]: 0.88 | CDI [18]: 0.93 | CDI [19]: 0.99 | CDI [20]: Tox | CDI [21]: 0.88 | CDI [22]: 0.92 | CDI [23]: Tox

OC(CCN1CCCCC1)(c1ccccc1)c1ccccc1 [pridinol]
CDI (coefficient of drug interaction), copper mixed with biocide [2]: Tox | CDI (coefficient of drug interaction), copper mixed with biocide [4]: Tox | CDI (coefficient of drug interaction), copper mixed with biocide [6]: Tox | CDI (coefficient of drug interaction) [8]: Tox | CDI (coefficient of drug interaction) [9]: Tox | CDI (coefficient of drug interaction) [10]: Tox | CDI (coefficient of drug interaction) [11]: Tox | CDI (coefficient of drug interaction) [12]: Tox | CDI (coefficient of drug interaction), silver + biocide (Silver 0.5 μM, 2nd of four biocide concentrations, E. coli): Tox | CDI (coefficient of drug interaction), silver + biocide [24]: Tox | CDI (coefficient of drug interaction), silver + biocide (Silver 1.0 μM, 2nd of four biocide concentrations, E. coli): Tox | CDI (coefficient of drug interaction), silver + biocide [25]: Tox | CDI (coefficient of drug interaction), silver + biocide (Silver 5.0 μM, 2nd of four biocide concentrations, E. coli): Tox | CDI (coefficient of drug interaction), silver + biocide [26]: Tox
